This passage reports IC50 results from patent US12577257B2, “Heterocyclic compounds” (Hoffmann-La Roche Inc., priority 2018, dated 2026).

The first test addresses T1, MAGL (recombinant wild-type) (Homo sapiens, UniProt Q99685).
T1 sequence (Q99685 1-303): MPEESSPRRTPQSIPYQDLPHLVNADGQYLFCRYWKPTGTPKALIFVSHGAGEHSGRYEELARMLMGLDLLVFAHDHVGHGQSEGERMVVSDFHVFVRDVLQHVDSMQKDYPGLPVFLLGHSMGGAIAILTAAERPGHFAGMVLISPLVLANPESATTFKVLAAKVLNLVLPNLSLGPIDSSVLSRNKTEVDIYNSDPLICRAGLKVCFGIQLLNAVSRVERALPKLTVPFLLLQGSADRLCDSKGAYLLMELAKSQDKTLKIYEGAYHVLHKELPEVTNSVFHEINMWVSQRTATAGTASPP
Kind of test: 4-NPA assay: MAGL hydrolysis of 4-nitrophenylacetate, absorbance at 405 nm. The format is biochemical. As to conditions: footnote [b]: measured in 4-NPA assay. Here is the method:
(§1) Compounds were profiled for MAGL inhibitory activity by measuring the enzymatic activity of MAGL by following the hydrolysis of 4-nitrophenylacetate resulting in 4-nitrophenol, which absorbs at 405-412 nm (G. G. Muccioli, G. Labar, D. M. Lambert, Chem. Bio. Chem. 2008, 9, 2704-2710). This assay is hereinafter abbreviated “4-NPA assay”.
(§2) The 4-NPA assay was carried out in 384 well assay plates (black with clear bottom, non-binding surface treated, Corning Ref. 3655) in a total volume of 40 μL. Compound dilutions were made in 100% DMSO (VWR Chemicals 23500.297) in a polypropylene plate in 3-fold dilution steps to give a final concentration range in the assay from 25 μM to 1.7 nM. 1 μL compound dilutions (100% DMSO) were added to 19 μL MAGL (recombinant wild-type) in assay buffer (50 mM TRIS (GIBCO, 15567-027), 1 mM EDTA (Fluka, 03690-100 ml)). The plate was shaked for 1 min at 2000 rpm (Variomag Teleshake) and then incubated for 15 min at RT. To start the reaction, 20 μL 4-Nitrophenylacetate (Sigma N-8130) in assay buffer with 6% EtOH was added. The final concentrations in the assay were 1 nM MAGL and 300 μM 4-Nitrophenylacetate. After shaking (1 min, 2000 rpm) and 5 min incubation at RT, the absorbance at 405 nm was measured for a first time (Molecular Devices, SpectraMax Paradigm). A second measurement was then done after incubation for 80 min at RT. From the two measurements, the slope was calculated by subtracting the first from the second measurement.
Take `O=C1CO[C@H]2CCN(C(=O)N3CCC4(C3)CN(C(c3ccccc3)c3ccccc3)C4)C[C@H]2N1` (racemic) [Example 20, rac-(4aR,8aS)-6-(2-Benzhydryl-2,6-diazaspiro[3.4]octane-6-carbonyl)hexahydro-2H-pyrido[4,3-b][1,4]oxazin-3(4H)-one]: the IC50 (commonly the concentration needed to halve the response being measured) is 2690 nM. For `O=C1CO[C@H]2CCN(C(=O)N3CCC4(CC3)CN(S(=O)(=O)c3ccccc3)C4)C[C@H]2N1` [Example 39, (4aR,8aS)-6-(2-(Phenylsulfonyl)-2,7-diazaspiro[3.5]nonane-7-carbonyl)hexahydro-2H-pyrido[4,3-b][1,4]oxazin-3(4H)-one], the IC50 was determined as 599 nM.

As for `O=C1CO[C@H]2CCN(C(=O)N3CCC4(CC3)CN(S(=O)(=O)c3ccc(F)cc3)CCO4)C[C@H]2N1` (racemic) [Example 21, rac-(4aR,8aS)-6-(4-((4-Fluorophenyl)sulfonyl)-1-oxa-4,9-diazaspiro[5.5]undecane-9-carbonyl)hexahydro-2H-pyrido[4,3-b][1,4]oxazin-3(4H)-one], the IC50 turned out to be 836 nM. Take `CC(C)(C)OC(=O)N1CC2(CCN(C(=O)N3CC[C@@H]4OCC(=O)N[C@@H]4C3)C2)C1` (racemic) [Int-1, rac-tert-Butyl 6-((4aR,8aS)-3-oxooctahydro-2H-pyrido[4,3-b][1,4]oxazine-6-carbonyl)-2,6-diazaspiro[3.4]octane-2-carboxylate]: the IC50 was found to be 539 nM.

In the next test the target is T2, MAGL (Homo sapiens, UniProt Q99685).
T2 sequence (Q99685 1-303): T1 sequence (Q99685 1-303)
Kind of test: MAGL inhibition, Table 1 values with no assay marker (2-AG or 4-NPA assay not stated). The format is biochemical.
Details: not given
Here is the method: as §1, §2
Alternatively, compounds were profiled for MAGL inhibitory activity by determining the enzymatic activity by following the hydrolysis of the natural substrate 2-arachidonoylglycerol resulting in arachidonic acid, which can be followed by mass spectrometry. This assay is hereinafter abbreviated “2-AG assay”.
The 2-AG assay was carried out in 384 well assay plates (PP, Greiner Cat #784201) in a total volume of 20 μL. Compound dilutions were made in 100% DMSO (VWR Chemicals 23500.297) in a polypropylene plate in 3-fold dilution steps to give a final concentration range in the assay from 12.5 μM to […]. 0.25 μL compound dilutions (100% DMSO) were added to 9 μL MAGL in assay buffer (50 mM TRIS (GIBCO, 15567-027), 1 mM EDTA (Fluka, 03690-100 ml), 0.01% (v/v) Tween. After shaking, the plate was incubated for 15 min at RT. To start the reaction, 10 μL 2-arachidonoylglycerol in assay buffer was added. The final concentrations in the assay was […] and 8 μM 2-arachidonoylglycerol. After shaking and 30 min incubation at RT, the reaction was quenched by the addition of 40 μL of acetonitrile containing 4 μM of d8-arachidonic acid. The amount of arachidonic acid was traced by an online SPE system (Agilent Rapidfire) coupled to a triple quadrupole mass spectrometer (Agilent 6460). A C18 SPE cartridge (G9205A) was used in an acetonitrile/water liquid setup. The mass spectrometer was operated in negative electrospray mode following the mass transitions 303.1→259.1 for arachidonic acid and 311.1→267.0 for d8-arachidonic acid. The activity of the compounds was calculated based on the ratio of intensities [arachidonic acid/d8-arachidonic acid].
`O=C1CO[C@H]2CCN(C(=O)N3CC4(CC(Cc5ccccc5O)C4)C3)C[C@H]2N1` [Example 74, (4aR,8aS)-6-(6-(2-hydroxybenzyl)-2-azaspiro[3.3]heptane-2-carbonyl)hexahydro-2H-pyrido[4,3-b][1,4]oxazin-3(4H)-one] had an IC50 of 0.5 nM. Same read-out and setting: with `CC(C)Oc1ccc(N2CC3(CN(C(=O)N4CC[C@@H]5OCC(=O)N[C@@H]5C4)C3)C2)cc1` [Example 60, (4aR,8aS)-6-(6-(4-isopropoxyphenyl)-2,6-diazaspiro[3.3]heptane-2-carbonyl)hexahydro-2H-pyrido[4,3-b][1,4]oxazin-3(4H)-one] the figure was 1590 nM; with `O=C1CO[C@H]2CCN(C(=O)N3CC4(CC(Cc5c(O)cccc5F)C4)C3)C[C@H]2N1` [Example 73, (4aR,8aS)-6-(6-(2-fluoro-6-hydroxybenzyl)-2-azaspiro[3.3]heptane-2-carbonyl)hexahydro-2H-pyrido[4,3-b][1,4]oxazin-3(4H)-one], 0.1 nM. The compound `O=C1CO[C@H]2CCN(C(=O)N3CC4(C3)CN(c3cccc(C(F)(F)F)c3)C4)C[C@H]2N1` [Example 56, (4aR,8aS)-6-(6-(3-(trifluoromethyl)phenyl)-2,6-diazaspiro[3.3]heptane-2-carbonyl)hexahydro-2H-pyrido[4,3-b][1,4]oxazin-3(4H)-one] displayed a half-maximal inhibitory concentration (IC50) of 361 nM.

For the compound `O=C1CO[C@H]2CCN(C(=O)N3CCC4(C3)CN(c3ccc(N5CCCC5=O)cc3)C4)C[C@H]2N1` [Example 61, (4aR,8aS)-6-(2-(4-(2-oxopyrrolidin-1-yl)phenyl)-2,6-diazaspiro[3.4]octane-6-carbonyl)hexahydro-2H-pyrido[4,3-b][1,4]oxazin-3(4H)-one], 2300 nM corresponded to half-maximal inhibition (IC50). On the same count and under the same terms, with `O=C1CO[C@H]2CCN(C(=O)N3CCC4(C3)CN(c3ccnc(F)c3)C4)C[C@H]2N1` [Example 64, (4aR,8aS)-6-(2-(2-fluoropyridin-4-yl)-2,6-diazaspiro[3.4]octane-6-carbonyl)hexahydro-2H-pyrido[4,3-b][1,4]oxazin-3(4H)-one] the figure was 4970 nM.
